Results taken from patent publication US11793746B2, “Intense skin hydration systems and methods” (priority 2020, dated 2023).

Legend:
[1] = system: collagen I and collagen III; test: Collagen deposition by light and electron microscopy; conditions: 20,000×; vs untreated control
Protocol: Skin tissue treated with GC-100 in the absence of ascorbic acid was prepared to illustrate collagen deposition. Tissue samples were first pretreated with Bouin's solution to intensify subsequent staining results. Samples were then treated with Mason's trichrome stain, which combines the plasma stain (chromotrope 2R) and connective tissue fiber stain)aniline blue) in a phosphotungstic acid solution to which glacial acetic acid was added. The collagen absorbs the tungsten ion, which may be visualized due to the complexed aniline blue.
Staining for specific collagen types was achieved using specific standardized indirect immunoperoxidase attains for collagen I and III, respectively.
Collagen deposition assessments are based on the visual interpretation of two endpoints: Collagen I and Collagen III. An untreated control and a tissue sample treated with GC-100 were stained to reveal collagen I. A similar method of comparison was used to illustrate collagen III deposition in control and treated tissue.
Tissues used for light microscopy were place in Karnovsky's fixative for additional evaluation using electron microscopy standard technique. Magnification power of 20,000× was used for visualization of the lower dermis.

[2] = system: ultraviolet-induced erythema; test: Ultraviolet-induced erythema, erythema scale; assay type: in vivo; conditions: for Erythema score (mean ± SD): scale 0 none to 4 severe
Protocol: The anti-inflammatory activity of GC-100 was evaluated using ultraviolet-induced erythema as an endpoint.
Ultraviolet radiation generates a predictable, dose-dependent cutaneous response over time. The pathological mechanism includes injury to epidermal, dermal, and vascular constituents of the skin with a local inflammatory response mediated by proinflammatory cytokines and prostaglandins. It is the objective of this experiment to determine whether GC-100 can alleviate an ultraviolet-mediated inflammatory response by qualitative assessment
Erythema was quantified after 2, 4, 5, and 24 hours following irradiation using a standard erythema scale that has been shown historically to yield reproducible results.

[3] = Radial forearm free-flap, trophic effect; assay type: in vivo
[4] = system: lysyl oxidase; test: Lysyl oxidase activity in wound-margin biopsies after surgical and xylene injury; assay type: in vivo, nude mice
Protocol: The dermotrophic effect of GC-100 was also determined using lysyl oxidase levels as an endpoint to determine whether GC-100 can effect the concentration of lysyl oxidase in wounded tissues and to establish whether GC-100 can accelerate the wound healing process using qualitative measurements.
Nude mice were chosen because their skin (and their lack of hair) is more similar to human skin than are other commonly used laboratory test animals. The test population was divided into 4 groups of 10 nude mice for the purpose of examining the best application sequence for GC-100 relative to injury. Group definitions are as follows:
A surgical wound measuring 2.54 cm in length and penetrating the dermis was made on the right hind quarter of all test subjects after appropriate anesthesia was administered.
A second index of injury using 1% xylene was used in all test subjects after creation of the surgical wound. Using a sterile tuberculin syringe, 0.1 mL of a 1% xylene solution was injected subcutaneously into the region of the surgical wound. The final size of the injury measured 25×20 mm^2.
The mice in Groups II, III, and IV were divided randomly after physical and chemical injury into 2 subgroups of 5 mice each for application of either GC-100 0.5% or 1%. Pretreatment for Group II and IV mice was conducted one hour prior to any injury, where GC-100 0.5% and 1% was rubbed into the right hind quarter of the designated mice for 50 cycles using a nylon glove. Post-treatment for mice in Group III and IV with GC-100 0.5% and 1% was conducted immediately after injury.
Wound recovery was determined over 30 days using cutaneous punch biopsies that were taken on post injury day 4, and at the conclusion of weeks 2, 3, and 4 from the wound margins. Biopsy specimens were analyzed for lysyl oxidase activity using a standard assay. Results are shown in Table 3 and FIG. 6, which is a graph showing percent lysyl oxidase as a function of treatment schedule and GC-100 concentration.

[5] = system: photodamaged human skin; test: Pilot open label study on photoaged skin: panelist questionnaire and side effects; assay type: in vivo
Protocol: A pilot open label study was conducted to establish the efficacy of GC-100 on photoaged skin in a clinical setting.
Primary endpoints for this study were as follows: • 1. Epidermal skin thickness was measured using high frequency ultrasound. • 2. Panelists regard for their overall appearance and any changes noted in the appearance of their wrinkles, lentigines, facial acne and pore size were used in qualitative analysis. In addition, panelists were asked to comment on irritation, novel rashes, and other side effects during the study period.
An open label, six week pilot study to examiner the regenerative effect of GC-100 was performed on 15 women with mild to moderate dermatoheliosis as defined by clinical examination. Exclusion criteria selected against patients with a history of retinoic acid use, dermabrasion, or chemical peel application within 6 months prior to study onset. However, all patients had used one or more of these products previously. After appropriate informed consent was obtained, baseline measurements of epidermal thickness using high frequency untrasonography (20 MHz and above) were collected using skin at the infraorbital prominence. Three measurements were taken at each site and averaged to yield a result. GC-100 was applied to the face and neck according to the following schedule: • Weekly: GC-100 applied in mask vehicle • Twice daily: GC-100 applied through lotion vehicle
The patient population was divided into two groups, where Group I was evaluated after 24 hours of product application, and Group II was evaluated at the conclusion of weeks 2, 4 and 6. A panelist questionnaire was completed during each evaluation session.

H-Lys-Pro-NH2 [GC-100]
collagen fibers in lower dermis, electron microscopy [1]: collagen fiber density is increased | % printed under erythema score (reduction vs control) ([2]; 0.1% GC-100, 2 hrs): 32% | Erythema score (mean ± SD) ([2]; 0.1% GC-100, 2 hrs after irradiation): 1.89 ± 0.60 | % printed under erythema score (reduction vs control) ([2]; 0.1% GC-100, 4 hrs): 58.7% | Erythema score (mean ± SD) ([2]; 0.1% GC-100, 4 hrs after irradiation): 1.56 ± 0.53 | % printed under erythema score (reduction vs control) ([2]; 0.1% GC-100, 5 hrs): 58.3% | Erythema score (mean ± SD) ([2]; 0.1% GC-100, 5 hrs after irradiation): 1.67 ± 0.71 | % printed under erythema score (reduction vs control) ([2]; 0.1% GC-100, 24 hrs): 50% | Erythema score (mean ± SD) ([2]; 0.1% GC-100, 24 hrs after irradiation): 1.00 ± 0.71 | effect on ultraviolet-induced erythema ([2]; 0.1%, 0.5%, 1% GC-100, greatest activity with 1%): ability to suppress ultraviolet-induced erythema | % printed under erythema score (reduction vs control) ([2]; 0.5% GC-100, 2 hrs): 56.1% | Erythema score (mean ± SD) ([2]; 0.5% GC-100, 2 hrs after irradiation): 1.22 ± 0.44 | % printed under erythema score (reduction vs control) ([2]; 0.5% GC-100, 4 hrs): 58.7% | Erythema score (mean ± SD) ([2]; 0.5% GC-100, 4 hrs after irradiation): 1.56 ± 0.53 | % printed under erythema score (reduction vs control) ([2]; 0.5% GC-100, 5 hrs): 58.7% | Erythema score (mean ± SD) ([2]; 0.5% GC-100, 5 hrs after irradiation): 1.56 ± 0.53 | % printed under erythema score (reduction vs control) ([2]; 0.5% GC-100, 24 hrs): 55.5% | Erythema score (mean ± SD) ([2]; 0.5% GC-100, 24 hrs after irradiation): 0.89 ± 0.33 | % printed under erythema score (reduction vs control) ([2]; 1.0% GC-100, 2 hrs): 64% | Erythema score (mean ± SD) ([2]; 1.0% GC-100, 2 hrs after irradiation): 1.00 | % printed under erythema score (reduction vs control) ([2]; 1.0% GC-100, 4 hrs): 67% | Erythema score (mean ± SD) ([2]; 1.0% GC-100, 4 hrs after irradiation): 1.22 ± 0.44 | % printed under erythema score (reduction vs control) ([2]; 1.0% GC-100, 5 hrs): 66.81% | Erythema score (mean ± SD) ([2]; 1.0% GC-100, 5 hrs after irradiation): 1.33 ± 0.50 | % printed under erythema score (reduction vs control) ([2]; 1.0% GC-100, 24 hrs): 83.5% | Erythema score (mean ± SD) ([2]; 1.0% GC-100, 24 hrs after irradiation): 0.33 ± 0.50 | acceleration of generalized healing ([3]; free flap full-thickness skin graft model, skin overlying a muscle belly): 50% | physical examination of treated flap skin ([3]; superior half of flap treated three times over 9 days from postoperative day 14): noticeably thicker, smoother and less erythematous | % lysyl oxidase ([4]; Group II pretreatment, 0.5% GC-100, Day 4): 1.4% | % lysyl oxidase ([4]; Group II pretreatment, 0.5% GC-100, Week 2): 10.2% | % lysyl oxidase ([4]; Group II pretreatment, 0.5% GC-100, Week 3): 13.4% | % lysyl oxidase ([4]; Group II pretreatment, 0.5% GC-100, Week 4): 45.9% | % lysyl oxidase ([4]; Group II pretreatment, 1% GC-100, Day 4): 5.2% | % lysyl oxidase ([4]; Group II pretreatment, 1% GC-100, Week 2): 18.2% | % lysyl oxidase ([4]; Group II pretreatment, 1% GC-100, Week 3): 23.4% | % lysyl oxidase ([4]; Group II pretreatment, 1% GC-100, Week 4): 45.9% | % lysyl oxidase ([4]; Group III post-treatment, 0.5% GC-100, Day 4): 1.2% | % lysyl oxidase ([4]; Group III post-treatment, 0.5% GC-100, Week 2): 3.2% | % lysyl oxidase ([4]; Group III post-treatment, 0.5% GC-100, Week 3): 19.8% | % lysyl oxidase ([4]; Group III post-treatment, 0.5% GC-100, Week 4): 48.7% | % lysyl oxidase ([4]; Group III post-treatment, 1% GC-100, Day 4): 5.3% | % lysyl oxidase ([4]; Group III post-treatment, 1% GC-100, Week 2): 11.5% | % lysyl oxidase ([4]; Group III post-treatment, 1% GC-100, Week 3): 19.7% | % lysyl oxidase ([4]; Group III post-treatment, 1% GC-100, Week 4): 49.6% | % lysyl oxidase ([4]; Group IV pre- & post-treatment, 0.5% GC-100, Day 4): 21% | % lysyl oxidase ([4]; Group IV pre- & post-treatment, 0.5% GC-100, Week 2): 30.1% | % lysyl oxidase ([4]; Group IV pre- & post-treatment, 0.5% GC-100, Week 3): 42.4% | % lysyl oxidase ([4]; Group IV pre- & post-treatment, 0.5% GC-100, Week 4): 52.8% | % lysyl oxidase ([4]; Group IV pre- & post-treatment, 1% GC-100, Day 4): 47.2% | % lysyl oxidase ([4]; Group IV pre- & post-treatment, 1% GC-100, Week 2): 50.5% | % lysyl oxidase ([4]; Group IV pre- & post-treatment, 1% GC-100, Week 3): 58.8% | % lysyl oxidase ([4]; Group IV pre- & post-treatment, 1% GC-100, Week 4): 62.7% | Incidence of side effects ([5]; panelist questionnaire): 0% | Positive response: Decreased appearance of lentigines ([5]; panelist questionnaire): 54% | Positive response: Decreased appearance of pores ([5]; panelist questionnaire): 92% | Positive response: Decreased appearance of wrinkles ([5]; panelist questionnaire): 62% | Positive response: Decreased incidence of blemishes ([5]; panelist questionnaire): 92% | Positive response: Improved overall cosmetic appearance ([5]; panelist questionnaire): 92% | clinical irritation during the study ([5]; six week study, face and neck): No clinically detectable irritation
